Activity calls are given as the source filed them. The calls are words filed in the database; no cut-off is given here. Where a SMILES comes first, the peptide text is derived from it. [ ]: non-standard residue; d: D form. NMeV = CN[C@H](C(=O)O)C(C)C; NMeS = CN[C@@H](CO)C(=O)O; hSer = N[C@@H](CCO)C(=O)O; Abu = CC[C@H](N)C(=O)O; Aib = CC(C)(N)C(=O)O

The target in experiment [1] is T1, Disks large homolog 4 (Homo sapiens, UniProt P78352). The experiment in a line: Binding affinity to human PSD95 domain PDZ3 expressed in Escherichia coli BL21-DE3 by fluorescence polarization assay.
For experiment [2], the target named is T1, Disks large homolog 4. The experiment in a line: Binding affinity to human PSD95 domain PDZ1 expressed in Escherichia coli BL21-DE3 by fluorescence polarization assay.
Target sequence in this assay (P78352 whole entry, the tested form may be a part): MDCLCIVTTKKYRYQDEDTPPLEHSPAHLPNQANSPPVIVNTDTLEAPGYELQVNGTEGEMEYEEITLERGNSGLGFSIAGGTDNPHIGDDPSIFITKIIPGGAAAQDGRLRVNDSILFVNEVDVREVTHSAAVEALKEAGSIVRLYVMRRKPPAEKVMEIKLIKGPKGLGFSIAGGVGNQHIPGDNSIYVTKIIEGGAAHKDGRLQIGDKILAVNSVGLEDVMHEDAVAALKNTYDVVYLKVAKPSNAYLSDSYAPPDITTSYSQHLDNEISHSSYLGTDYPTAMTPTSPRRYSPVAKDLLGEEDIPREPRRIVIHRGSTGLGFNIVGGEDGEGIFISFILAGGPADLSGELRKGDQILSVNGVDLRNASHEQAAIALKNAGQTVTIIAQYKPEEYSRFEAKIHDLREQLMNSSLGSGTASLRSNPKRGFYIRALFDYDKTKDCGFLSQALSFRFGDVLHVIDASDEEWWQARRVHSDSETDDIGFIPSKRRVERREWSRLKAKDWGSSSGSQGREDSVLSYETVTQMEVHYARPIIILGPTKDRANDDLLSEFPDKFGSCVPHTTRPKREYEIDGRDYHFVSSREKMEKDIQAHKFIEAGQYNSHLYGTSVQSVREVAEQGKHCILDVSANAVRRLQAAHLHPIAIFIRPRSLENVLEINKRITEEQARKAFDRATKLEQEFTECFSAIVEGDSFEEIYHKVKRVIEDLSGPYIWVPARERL
The target of experiment [3] is T1, Disks large homolog 4. The experiment in a line: Binding affinity to human PSD95 domain PDZ2 expressed in Escherichia coli BL21-DE3 by fluorescence polarization assay.
Target sequence in this assay (P78352 whole entry, the tested form may be a part): as above
In experiment [4] the target is T1, Disks large homolog 4. The experiment in a line: Binding affinity to human PSD95 domain PDZ1 expressed in Escherichia coli BL21-DE3 by fluorescence polarization assay.
Target sequence in this assay (P78352 whole entry, looked up, the tested form may be a part): as the sequence (P78352 whole entry, the tested form may be a part) above
For experiment [5], the target named is T1, Disks large homolog 4. The experiment in a line: Binding affinity to human PSD95 domain PDZ2 expressed in Escherichia coli BL21-DE3 by fluorescence polarization assay.
Target sequence in this assay (P78352 whole entry, looked up, the tested form may be a part): as the sequence (P78352 whole entry, the tested form may be a part) above

On to `CC(C)[C@H](NC(=O)[C@H](C)NC(=O)[C@@H](NC(=O)[C@H](CCC(=O)O)NCCC1CCCCC1)[C@@H](C)O)C(=O)O`, for which, in experiment [1], the Ki was found to be 11000 nM.

Consider `CN[C@@H](CCC(=O)O)C(=O)N[C@H](C(=O)N[C@@H](C)C(=O)N[C@H](C(=O)O)C(C)C)[C@@H](C)O`, for which affinity in experiment [2] was put at a Ki of 11000 nM. On the same count and under the same terms, then `CC(C)[C@H](NC(=O)[C@H](C)NC(=O)[C@@H](NC(=O)[C@H](CCC(=O)O)NCCc1ccc2ccccc2c1)[C@@H](C)O)C(=O)O`, with 1000 nM.

Compound `CC(C)[C@H](NC(=O)[C@H](C)NC(=O)[C@@H](NC(=O)[C@H](CCC(=O)O)NCCCc1ccc(F)c(F)c1)[C@@H](C)O)C(=O)O` showed a Ki in experiment [3] of 1000 nM. For `CC(C)[C@H](NC(=O)[C@H](C)NC(=O)[C@@H](NC(=O)[C@H](CCC(=O)O)NCC1CCCCC1)[C@@H](C)O)C(=O)O`, affinity in experiment [2] was put at a Ki of 1000 nM. `CC(C)[C@H](NC(=O)[C@H](CC(=O)O)NC(=O)[C@@H](NC(=O)[C@@H](N)CCC(=O)O)C(C)(C)CO)C(=O)O`: the result in experiment [4] and in experiment [5] was inactive. Consider `CC(C)[C@H](NC(=O)[C@H](CC(=O)O)NC(=O)[C@@H](NC(=O)[C@@H](N)CCC(=O)O)[C@H](C)CO)C(=O)O`, for which the outcome in experiment [4] and in experiment [5] was inactive. As to `CC[C@H](C)[C@H](NC(=O)[C@H](CO)NC(=O)[C@H](CO)NC(=O)[C@H](CC(C)C)NC(=O)[C@H](CCCCN)NC(=O)[C@H](CCCNC(=N)N)NC(=O)[C@H](CCCNC(=N)N)NC(=O)[C@H](CCCNC(=N)N)NC(=O)[C@H](CCC(N)=O)NC(=O)[C@H](CCCNC(=N)N)NC(=O)[C@H](CCCNC(=N)N)NC(=O)[C@H](CCCCN)NC(=O)[C@H](CCCCN)NC(=O)[C@H](CCCNC(=N)N)NC(=O)CNC(=O)[C@@H](N)Cc1ccc(O)cc1)C(=O)N[C@@H](CCC(=O)O)C(=O)N[C@@H](CO)C(=O)N[C@@H](CC(=O)O)C(=O)N[C@H](C(=O)O)C(C)C`, in experiment [1], the result was inactive. Regarding `CC[C@H](NC(=O)[C@H](CC(=O)O)NC(=O)[C@H](CO)NC(=O)[C@@H](N)CCC(=O)O)C(=O)O` (H-ESD[Abu]-OH), the result in experiment [5] was inactive. With `CC(C)(NC(=O)[C@H](CC(=O)O)NC(=O)[C@H](CO)NC(=O)[C@@H](N)CCC(=O)O)C(=O)O` (H-ESD[Aib]-OH), the outcome in experiment [4] and in experiment [5] was inactive. Consider `CC(C)[C@@H](C(=O)O)N(C)C(=O)[C@H](CC(=O)O)NC(=O)[C@H](CO)NC(=O)[C@@H](N)CCC(=O)O` (H-ESD[NMeV]-OH), for which the outcome in experiment [4] and in experiment [5] was inactive. In the case of `CC(C)[C@H](NC(=O)[C@H](CC(=O)O)NC(=O)[C@H](CO)N(C)C(=O)[C@@H](N)CCC(=O)O)C(=O)O` (H-E[NMeS]DV-OH), the result in experiment [4] and in experiment [5] was inactive. Turning to `CC(C)[C@H](NC(=O)[C@H](CC(=O)O)NC(=O)[C@H](CCO)NC(=O)[C@@H](N)CCC(=O)O)C(=O)O` (H-E[hSer]DV-OH), the result in experiment [4] and in experiment [5] was inactive. H-KSGYEKLSSIESDV-OH: the outcome in experiment [1] was inactive.
